Test results reported in patent US11247965B2 (VenatoRx Pharmaceuticals, Inc., priority 2017, dated 2022).

Experiments:
[1] = tested on: HBV replication in HepAD38 cells; test: Anti-HBV activity in HepAD38 cells, extracellular HBV DNA by QPCR; assay type: cell-based, HBV (genotype D, serotype ayw); details: Hepatitis B virus, HePAD38, 168 h, read-out: Anti-HBV EC50, HepAD38 cells, extracellular HBV DNA by QPCR, 7 days of incubation
Procedure: The anti-HBV activity of the Capsid Assembly Modulators (CAMs) was evaluated in a cell based assay utilizing the human hepatoma cell line HepAD38 (Ladner, S K., et al., 1998). HepAD38 cells were derived from the parental line, HepG2, that were stably transfected with a construct containing an HBV genome (genotype D, serotype ayw) under the control of a tetracycline repressible CMV promoter. Upon removal of tetracycline, viral pre-genomic RNA (pgRNA) and mRNAs are expressed and infectious viral particles are assembled and secreted into the culture medium providing a reliable, robust system to measure multiple steps of the HBV life cycle. Disruption of capsid formation results in reduced levels of DNA-containing virus particles that are released into the culture supernatant. To quantify the effect of CAMs on HBV replication, we developed a sensitive QPCR-based assay that measures extracellular HBV DNA levels upon treatment of HepAD38 cells with various concentrations of test compounds.
HepAD38 cells were maintained in DMEM/F12 medium containing 10% FBS, 400 μg/mL G418 and 0.3 μg/mL tetracycline (tet+medium) to maintain repression of HBV replication. To evaluate each compound, HepAD38 cells were seeded into 24-well collagen coated culture plates (Corning BioCoat) at a density of 200,000 cells per well in 1 mL of tet+medium and allowed to adhere overnight at 37° C., 5% CO2 in a humidified incubator. The following day, test articles were subjected to half-logo serial dilutions, ranging from 30 μM to 10 nM, in 100% DMSO at 200× the desired final assay concentration. Tetracycline was removed from the cells by aspirating the tet+medium and washing the cells once with growth medium lacking tetracycline (tet-). Various concentrations of each compound were added to the appropriate wells (1:200 dilution) and the plates were returned to the incubator. Following 7 days of incubation, culture supernatants were harvested and HBV DNA levels were evaluated by QPCR and compared to the vehicle treated control wells (i.e. DMSO alone).
To quantify HBV DNA levels, cell culture supernatants were diluted 1:10 in sterile, nuclease-free water (Gibco). The diluted supernatants were subsequently added to a PCR master mix containing 1× Roche Light Cycler Master Mix, 0.5 μM forward primer, 0.5 μM reverse primer (Fwd:
0.2 μM Roche Universal Probe Library Probe 25. The volume was brought to 20 μL with nuclease-free water and amplification of the HBV target sequence was performed using a Roche LightCycler 480 QPCR instrument. PCR extended out to 45 cycles with each cycle consisting of a denaturation step at 95° C. for 10 sec., followed by an annealing step at 60° C. for 10 sec. and a brief extension step at 72° C. for 1 sec.
Extracellular HBV DNA levels, expressed in copies/mL, were determined by comparison to a standard curve (10^2-10^9 copies/mL) using the Roche LightCycler analysis software. These values were subsequently converted to percent inhibition of HBV replication by dividing the HBV DNA levels in the experimental samples with those obtained from the vehicle control (˜1-2×10^5 copies/mL). Potency, expressed as an EC50 (the effective concentration required to inhibit […] of HBV replication), was calculated from the dose-response curve using a 4-parameter non-linear regression analysis (GraphPad Prism). The nucleoside analog inhibitor entecavir was used as a positive control to validate each assay run. The EC50 value of entecavir in the HepAD38 assay was 0.5 nM, as previously reported in the literature.

[2] = In vitro cytotoxicity, MTT cell viability assay in HepG2 cells; assay type: cell-based; details: human, Cytotoxicity CC50
Procedure: To evaluate antiviral selectivity, the cytotoxic activity of each compound was determined using a standard cell viability assay performed on the parental HepG2 cell line. Cell viability was determined by measuring the conversion of 3-(4,5-dimethylthiazol-2-yl)-2,5-diphenyltetrazolium bromide (MTT) to the insoluble formazan salt crystal that occurs in live cells. Briefly, HepG2 cells were seeded in 96-well plates at a density of 20,000 cells per well in EMEM+10% FBS (complete growth medium) and allowed to adhere overnight in a 37° C., 5% CO2 humidified incubator. The next day, test agents were prepared by performing 8 half-log10 serial dilutions in 100% DMSO at 200× the final desired concentration in the assay. Compounds were tested over a range of concentrations from 30 μM to 1.0 nM in the assay. HepG2 cells were incubated in the presence of various concentrations of CAMs for 7 days in a 37° C., 5% CO2 humidified incubator. At the completion of the 7-day incubation period, MTT reagent was added to each well and the mixture was incubated for an additional 3-4 hours. At the completion of the incubation period, all wells were aspirated to remove the culture medium. The formazan crystals were solubilized from the cell monolayers with 100% DMSO. Plates were briefly mixed on an orbital shaker and absorbance was measured at 492 nm using a Perkin-Elmer EnVision multi-label plate reader. All absorbance values were converted to a percentage of the signal obtained from the vehicle treated controls. Absorbance values at 492 nm are directly proportional to the number of viable cells present in the sample. A CC50 value (cytotoxic concentration that results in loss of 50% cell viability) was calculated from the dose-response curve by 4-parameter, non-linear regression analysis using the GraphPad Prism software. The positive control compound, staurosporine, reduced the viability of HepG2 cells in a dose-dependent manner (CC50=100 nM).

| SMILES | EC50 [1] [µM] | CC50 at 7 days [2] [µM] |
| --- | --- | --- |
| O=C(Nc1ccc(F)c(F)c1)c1ccc(F)c(C(F)(F)C(=O)N(CCO)CCO)c1 [Example 16, 3-(2-(bis(2-hydroxyethyl)amino)-1,1-difluoro-2-oxoethyl)-N-(3,4-difluorophenyl)-4-fluorobenzamide] | 5 to 30 | > 30 |
| Cc1cc(NC(=O)c2ccc(Cl)c(C(F)(F)C(=O)N3CCC(O)CC3)c2)ccc1F [Example 17, 4-chloro-3-(1,1-difluoro-2-(4-hydroxypiperidin-1-yl)-2-oxoethyl)-N-(4-fluoro-3-methylphenyl)benzamide] | < 5 | 5 to 30 |
| CC(C)(C)NC(=O)C(F)(F)c1cc(C(=O)Nc2ccc(F)c(F)c2)ccc1F [Example 18, 3-(2-(tert-butylamino)-1,1-difluoro-2-oxoethyl)-N-(3,4-difluorophenyl)-4-fluorobenzamide] | 5 to 30 | 5 to 30 |
| CCC(C)(C)NC(=O)C(F)(F)c1cc(C(=O)Nc2ccc(F)c(F)c2)ccc1F [Example 19, 3-(1,1-difluoro-2-oxo-2-(tert-pentylamino)ethyl)-N-(3,4-difluorophenyl)-4-fluorobenzamide] | < 5 | 5 to 30 |
| O=C(Nc1ccc(F)c(F)c1)c1ccc(F)c(C(F)(F)C(=O)NC2CCCC2)c1 [Example 20, 3-(2-(cyclopentylamino)-1,1-difluoro-2-oxoethyl)-N-(3,4-difluorophenyl)-4-fluorobenzamide] | 5 to 30 | 5 to 30 |
| COc1ccccc1NC(=O)C(F)(F)c1cc(C(=O)Nc2ccc(F)c(F)c2)ccc1F [Example 21, 3-(1,1-difluoro-2-((2-methoxyphenyl)amino)-2-oxoethyl)-N-(3,4-difluorophenyl)-4-fluorobenzamide] | 5 to 30 | 5 to 30 |
| O=C(Nc1ccc(F)c(F)c1)c1ccc(F)c(C(F)(F)C(=O)Nc2ccc(F)cn2)c1 [Example 22, 3-(1,1-difluoro-2-((5-fluoropyridin-2-yl)amino)-2-oxoethyl)-N-(3,4-difluorophenyl)-4-fluorobenzamide] | 5 to 30 | > 30 |
| Cc1cc(NC(=O)c2ccc(Cl)c(C(F)(F)C(=O)NC(C)C)c2)ccc1F [Example 23, 4-chloro-3-(1,1-difluoro-2-(isopropylamino)-2-oxoethyl)-N-(4-fluoro-3-methylphenyl)benzamide] | 5 to 30 | 5 to 30 |
| CC(C)(CO)NC(=O)C(F)(F)c1cc(C(=O)Nc2ccc(F)c(F)c2)ccc1F [Example 24, 3-(1,1-difluoro-2-((1-hydroxy-2-methylpropan-2-yl)amino)-2-oxoethyl)-N-(3,4-difluorophenyl)-4-fluorobenzamide] | 5 to 30 | 5 to 30 |
| O=C(Nc1ccc(F)c(F)c1)c1ccc(F)c(C(F)(F)C(=O)N2CCCCC(O)C2)c1 (stereo not drawn) [Example 25, 3-(1,1-difluoro-2-(3-hydroxyazepan-1-yl)-2-oxoethyl)-N-(3,4-difluorophenyl)-4-fluorobenzamide] | < 5 | 5 to 30 |
| O=C(Nc1ccc(F)c(F)c1)c1ccc(F)c(C(F)(F)C(=O)NC2CCC(O)CC2)c1 (stereo not drawn) [Example 26, 3-(1,1-difluoro-2-(((1r,4r)-4-hydroxycyclohexyl)amino)-2-oxoethyl)-N-(3,4-difluorophenyl)-4-fluorobenzamide] | < 5 | 5 to 30 |
| Cc1cc(NC(=O)c2ccc(F)c(C(F)(F)C(=O)NC(C)(C)CO)c2)ccc1F [Example 28, 3-(1,1-difluoro-2-((1-hydroxy-2-methylpropan-2-yl)amino)-2-oxoethyl)-4-fluoro-N-(4-fluoro-3-methylphenyl)benzamide] | 5 to 30 | > 30 |
| Cc1cc(NC(=O)c2ccc(F)c(C(F)(F)C(=O)N3CCC(O)CC3)c2)ccc1F [Example 29, 3-(1,1-difluoro-2-(4-hydroxypiperidin-1-yl)-2-oxoethyl)-4-fluoro-N-(4-fluoro-3-methylphenyl)benzamide] | < 5 | > 30 |
| Cc1cc(NC(=O)c2csc(C(F)(F)C(=O)N3CCC(O)CC3)n2)ccc1F [Example 30, 2-(1,1-difluoro-2-(4-hydroxypiperidin-1-yl)-2-oxoethyl)-N-(4-fluoro-3-methylphenyl)thiazole-4-carboxamide] | 5 to 30 | 5 to 30 |
| CC(C)(CO)NC(=O)C(F)c1cc(C(=O)Nc2ccc(F)c(F)c2)ccc1F (stereo not drawn) [Example 31, N-(3,4-difluorophenyl)-4-fluoro-3-(1-fluoro-2-((1-hydroxy-2-methylpropan-2-yl)amino)-2-oxoethyl)benzamide] | 5 to 30 | 5 to 30 |
| O=C(Nc1ccc(F)c(F)c1)c1ccc(F)c(C(F)C(=O)N2CCC(O)CC2)c1 (stereo not drawn) [Example 32, N-(3,4-difluorophenyl)-4-fluoro-3-(1-fluoro-2-(4-hydroxypiperidin-1-yl)-2-oxoethyl)benzamide] | < 5 | 5 to 30 |
| N#Cc1cc(NC(=O)c2ccc(Cl)c(C(F)(F)C(=O)N3CCC(O)CC3)c2)ccc1F [Example 33, 4-chloro-N-(3-cyano-4-fluorophenyl)-3-(1,1-difluoro-2-(4-hydroxypiperidin-1-yl)-2-oxoethyl)benzamide] | < 5 | > 30 |
| O=C(Nc1cc(F)c(F)c(F)c1)c1ccc(Cl)c(C(F)(F)C(=O)N2CCC(O)CC2)c1 [Example 34, 4-chloro-3-(1,1-difluoro-2-(4-hydroxypiperidin-1-yl)-2-oxoethyl)-N-(3,4,5-trifluorophenyl)benzamide] | < 5 | 5 to 30 |
| O=C(Nc1ccc(F)c(Cl)c1)c1ccc(Cl)c(C(F)(F)C(=O)N2CCC(O)CC2)c1 [Example 35, 4-chloro-N-(3-chloro-4-fluorophenyl)-3-(1,1-difluoro-2-(4-hydroxypiperidin-1-yl)-2-oxoethyl)benzamide] | < 5 | 5 to 30 |
| O=C(Nc1ccc(F)cc1)c1ccc(Cl)c(C(F)(F)C(=O)N2CCC(O)CC2)c1 [Example 36, 4-chloro-3-(1,1-difluoro-2-(4-hydroxypiperidin-1-yl)-2-oxoethyl)-N-(4-fluorophenyl)benzamide] | < 5 | > 30 |
| O=C(Nc1ccc(Cl)cc1F)c1ccc(Cl)c(C(F)(F)C(=O)N2CCC(O)CC2)c1 [Example 37, 4-chloro-N-(4-chloro-2-fluorophenyl)-3-(1,1-difluoro-2-(4-hydroxypiperidin-1-yl)-2-oxoethyl)benzamide] | > 30 | > 30 |
